Laboratory results published in patent US20160374979A1, “Method of Treatment of Alopecia with Monoterpenoids” (CELLMID LIMITED, priority 2013, published 2016).
Entries after “also recorded” stand apart in the source; their conditions may differ.

Experiments:
[1] = tested on: FGF-5-dependent cell proliferation (FR-BaF3 cells expressing FGFR-1c); test: FR-Ba/F3 cell proliferation/viability assay in the presence of FGF-5 (CCK-8); format: cell-based, murine; settings: for Suppression of FGF-5-dependent cell proliferation and viability: FR-BaF3 cells, in words (FIGS. 1(a)-1(h)); for FGF-5 Specificity IL-1/FGF-5: ratio of the IC50 with IL-3 to the IC50 with FGF-5, BR: less reproducible; for FGF-5-inhibitory activity (in words): judged from FR-BaF3 result
Description: Ba/F3 is a murine interleukin-3 (IL-3)-dependent pro-B cell line. […] That is, compounds were tested for their ability to modulate proliferation of FR-Ba/F3 cells in the presence of recombinant human FGF-5 (rhFGF-5) prepared according to Maeda et al., Nishi Nihon Hifuka, 69(1): 81-86, 2007.
Briefly, a suitable plasmid expressing FGFR-1c was introduced into […] ER-Ba/F3 cells, and the cells were maintained in RPMI RPMI-1640 with 10% FBS and 1.3×10^−17 M of murine IL-3 (Sigma, St Louis, […].) containing antibiotic G418 sulfate (Promega, Medison, Wis.). The inventors compared proliferation of FR/BaF3 cells in culture medium containing IL3 or FGF-5 and a different concentration in the range from 0.005% (w/v) to 1.0% (w/v) of each test compound listed in Example 1. The FR-BaF3 cells were seeded at 5×10^4/mL cells per well in 96-well, micro-culture plates (Falcon) in RPMI-1640 culture medium containing 10% fetal bovine serum, 5 μg/mL heparin. Recombinant human FGF-5 (rhFGF-5; 1 μg/mL) was added to one group, and IL-3 (0.2 ng/mL) (Sigma) was added to another group. The test compounds were then introduced to the micro-culture plate wells. Total volume of media per well was 100 μl. Control groups lacking test compound were also prepared for each of the IL-3-supplemented and FGF-5-supplemented samples. The plates were then incubated at 37° C. in 5% CO2 for 3 days.
After 3 days, colorimetric assays were performed using a Cell Counting Kit-8 (CCK-8) (Wako) according to the manufacturer's instructions to measure cell proliferation or suppression thereof by the test compound at varying concentrations. Briefly, 10 μl (1:2 dilution) of the CCK-8 reagent was added to each micro-culture plate well after which time the plates were incubated at […] for 3 hours. Absorbance at 450 nm was then measured using a microplate reader. Cell viability and proliferation for the IL-3-supplemented and FGF-5-supplemented groups was calculated as a measure of the optical density (OD) of cells treated with a test compound relative to the OD of the respective untreated controls, excluding the OD of blank controls (media only). Dose response curves were plotted and the respective inhibitory concentrations (IC50) for the test compounds were determined.

[2] = tested on: Alkaline Phosphatase (ALP) activity in dermal papilla (DP) cells treated with FGF-5; test: Dermal papilla alkaline phosphatase (DP-ALP) cell assay; format: cell-based, human; settings: for FGF-5-inhibitory activity ranked from most active to least active by DP-ALP assay: rank order; for relative ALP activity of DP cells treated FGF-5: 0.005-0.5 mg/ml, GSK3 inhibitor IX + rhFGF-5 1 μg/mL, 3 days, absorbance 490 nm
Description: Dermal papilla cells were prepared according to the methods described in WO2013/105417, Briefly, hairs were pulled from the scalp of a healthy subject showing normal non-alopecia hair growth using tweezers. Hair follicles with dermal papilla were thus obtained at a rate of approximately one for every 100 hairs pulled. The hair follicles with dermal papilla were separated from the hair using tweezers and transferred into a saline for inspection under a microscope. Under a microscope, each dermal papilla was isolated from a respective hair follicle using tweezers and a scalpel. Approximately 2000 isolated dermal papilla cells were then transferred to a 35 mm cell culture dish together 1-2 ml of cell culture medium, after which time the cells were cultured at 37° C. to produce a primary cell culture of dermal papilla. The cell culture medium consisted of approximately 90% DMEM medium, 10% fetal bovine serum (final concentration: 10%), FGF2 (final, concentration: 10 ng/ml), and penicillin-streptornycin solution (final concentration: 1 μg/ml) for every 2 mL of medium. Cell culture conditions were maintained for more than 14 days until dermal papilla cells covered approximately 40% of the area of the 35 mm culture dish, at which time subcultures were performed. To prepare the subcultures, the cell culture medium was removed from the 35 mm culture dish and the adherent cells were washed once with 2 ml of saline (at room temperature). 1 ml Trypsin-EDTA solution (0.1% trypsin and 0.02% EDTA) was then added to the 35 mm culture dish and left to stand for 4 minutes at 37° C. Dissociated dermal papilla cells were then recovered from the 35 mm dish, and seeded to a new 100 mm dish, and cultured in media under the same conditions as for the primary cell culture described above.
When the dermal papilla cells covered approximately 70-80% of the area of each 100 mm culture dish, the sub-confluent cells were subcultured as before. The process was repeated until sufficient cells were obtained to screen compounds of interest.
Once sufficient DP cells were obtained, the cells were harvested to provide a cell suspension. To harvest the DP cells, the cell culture medium was removed from the culture dish, and the adherent cells were washed with saline at room temperature. Trypsin-EDTA solution was then added under conditions described supra to dissociate the cells from the cell culture dish. Approximately 5×10^5 of the dissociated cells were resuspended in 500 ml of assay medium containing 445 ml of DMEM medium, 50 ml of 10% fetal calf serum and 5 ml of antibiotic.
Aliquots of the cell suspension were transferred to the wells of cell culture dishes, and a single monoterpenoid listed in Example 1 e.g., (−)-4-terpinen-4-ol, (+)-4-terpinen-4-ol. (±)-4-terpinen-4-ol, α-terpineol, nonanal, linalyl acetate or piperitone, is added to each well at a concentration of 0.005 (mg/ml) or 0.01 (mg/ml) or 0.05 (mg/ml) or 0.1 (mg/ml) or 0.5 (mg/ml). Cell suspensions were transferred to wells of a further cell culture dish to which minoxidil was then added at a concentration of 0.005 (mg/ml) or 0.01 (mg/ml) or 0.05 (mg/ml) or 0.1 (mg/ml) or 0.5 (mg/ml). A Wnt/β-catenin pathway activation agent e.g., Wnt3a or GSK-3 Inhibitor IX, as added to each of the cell cultures to produce an “activated cell culture”. Control cell cultures containing the same monoterpenoid compound or minoxodil, but lacking the Wnt/β-cinenin pathway activation agent, were processed in parallel. These activated and control cell cultures were divided further into duplicate cell culture samples either lacking FGF-5 or to which recombinant human FGF-5 (rhFGF-5; 1 μg/mL)) was added.
The cell culture samples were each cultured at 37° C. for 3 days under atmosphere containing less than 5% CO2. […]

Row | Compound | Suppression of FGF-5-dependent cell proliferation and viability [1] | FGF-5 Specificity IL-1/FGF-5 [1] | FGF-5-inhibitory activity ranked from most active to least active by DP-ALP assay [2] | FGF-5-inhibitory activity (in words) [1] | relative ALP activity of DP cells treated FGF-5 [2] | FGF-5-inhibitory activity (in words) ([1]; listed as (−)-terpinen-4-ol)
1 | C=C(C)C1CC=C(C)C(O)C1 (stereo not drawn) [l-Carveol, 2-Methyl-5-(1-methylethenyl)-2-cyclohexen-1-ol] | Suppression of FGF-5-dependent cell proliferation and viability was observed | 2 | – | – | – | –
2 | C=CC(C)(CCC=C(C)C)OC(C)=O (stereo not drawn) [Linalyl acetate, 3,7-Dimethyl-1,6-octadien-3-yl acetate] | Suppression of FGF-5-dependent cell proliferation and viability was observed | – | Piperitone>(−)-terpinen-4-ol>(±)-Terpinen-4β-Terpineol> (+)-Terpinen-4-ol > Linalyl Acetate | potent FGF-5-inhibitory active substances | – | –
3 | CC1=CC[C@](O)(C(C)C)CC1 [(+)-4-Terpinen-4-ol, (1S)-1-Isopropyl-4-methyl-3-cyclohexen-1-ol] | Suppression of FGF-5-dependent cell proliferation and viability was observed | 9.1> | Piperitone>(−)-terpinen-4-ol>(±)-Terpinen-4β-Terpineol> (+)-Terpinen-4-ol > Linalyl Acetate | potent FGF-5-inhibitory active substances | increased relative ALP activity | –
4 | CC1=CCC(O)(C(C)C)CC1 (racemic) [(±)-4-Terpinen-4-ol, 1-Isopropyl-4-methyl-3-cyclohexen-1-ol] | – | – | Piperitone>(−)-terpinen-4-ol>(±)-Terpinen-4β-Terpineol> (+)-Terpinen-4-ol > Linalyl Acetate | potent FGF-5-inhibitory active substances | increased relative ALP activity | –
5 | CC1=CC[C@@](O)(C(C)C)CC1 [(−)-4-Terpinen-4-ol, (R)-1-Isopropyl-4-methyl-3-cyclohexen-1-ol] | Suppression of FGF-5-dependent cell proliferation and viability was observed | 2> | Piperitone>(−)-terpinen-4-ol>(±)-Terpinen-4β-Terpineol> (+)-Terpinen-4-ol > Linalyl Acetate | potent FGF-5-inhibitory active substances | high alkaline phosphatase activity; also recorded: higher alkaline phosphatase activity in dermal papillae than a racemic mixture of terpinen-4-al or (+)-Terpinen-4-ol; also recorded: increased relative ALP activity | high FGF-5 inhibitory activity; also recorded: higher FGF-5 inhibitory activity than (+)-terpinen-4-ol
6 | C=CC(C)(O)CCC=C(C)C (stereo not drawn) [Linalool, 3,7-Dimethyl-1,6-octadien-3-ol] | Suppression of FGF-5-dependent cell proliferation and viability was observed | 30> (BR) | – | – | – | –
7 | CC(=O)OC/C=C(\C)CCC=C(C)C [Geranyl acetate, (2E)-3,7-Dimethyl-2,6-octadien-1-yl acetate] | Suppression of FGF-5-dependent cell proliferation and viability was observed | 8 (BR) | – | – | – | –
8 | CCCCCCCCC=O [Nonanal, reference compound] | – | 9 | – | potent FGF-5-inhibitory active substances | – | –
9 | CC1=CCC(C(C)(C)O)CC1 (stereo not drawn) [α-Terpineol, 2-(4-Methyl-3-cyclohexen-1-yl)-2-propanol] | Suppression of FGF-5-dependent cell proliferation and viability was observed | 5> | Piperitone>(−)-terpinen-4-ol>(±)-Terpinen-4β-Terpineol> (+)-Terpinen-4-ol > Linalyl Acetate | potent FGF-5-inhibitory active substances | increased relative ALP activity | –
